Data published in patent US20060079566A1, “PDK-1/Akt signaling inhibitors” (priority 2003, published 2006).

Experiments:
A549/ATCC = test: NCI DTP screen (SRB), Non-Small Cell Lung Cancer; type: cell-based; conditions: Homo sapiens
Experimental: (§1) Screening of compounds 70 and 71 against several cancer cell lines The human tumor cell lines of the cancer screening panel are grown in RPMI 1640 medium containing 5% fetal bovine serum and 2 mM L-glutamine. For a typical screening experiment, cells are inoculated into 96 well microtiter plates in 100 μL at plating densities ranging from 5,000 to 40,000 cells/well depending on the doubling time of individual cell lines. After cell inoculation, the microtiter plates are incubated at 37° C., 5% CO2, 95% air and 100% relative humidity for 24 h prior to addition of experimental drugs.
(§2) After 24 h, two plates of each cell line are fixed in situ with TCA, to represent a measurement of the cell population for each cell line at the time of drug addition (Tz). Experimental drugs are solubilized in dimethyl sulfoxide at 400-fold the desired final maximum test concentration and stored frozen prior to use. At the time of drug addition, an aliquot of frozen concentrate is thawed and diluted to twice the desired final maximum test concentration with complete medium containing 50 μg/ml gentamicin. Additional four, 10-fold or ½ log serial dilutions are made to provide a total of five drug concentrations plus control. Aliquots of 100 μl of these different drug dilutions are added to the appropriate microtiter wells already containing 100 μl of medium, resulting in the required final drug concentrations.
(§3) Following drug addition, the plates are incubated for an additional 48 h at 37° C., 5% CO2, 95% air, and 100% relative humidity. For adherent cells, the assay is terminated by the addition of cold TCA. Cells are fixed in situ by the gentle addition of 50 μl of cold 50% (w/v) TCA (final concentration, 10% TCA) and incubated for 60 minutes at 4° C. The supernatant is discarded, and the plates are washed five times with tap water and air dried. Sulforhodamine B (SRB) solution (100 μl) at 0.4% (w/v) in 1% acetic acid is added to each well, and plates are incubated for 10 minutes at room temperature. After staining, unbound dye is removed by washing five times with 1% acetic acid and the plates are air dried. Bound stain is subsequently solubilized with 10 mM trizma base, and the absorbance is read on an automated plate reader at a wavelength of 515 nm. For suspension cells, the methodology is the same except that the assay is terminated by fixing settled cells at the bottom of the wells by gently adding 50 μl of 80% TCA (final concentration, 16% TCA). Using the seven absorbance measurements [time zero, (Tz), control growth, (C), and test growth in the presence of drug at the five concentration levels (Ti)], the percentage growth is calculated at each of the drug concentrations levels. Percentage growth inhibition is calculated as: [(Ti−Tz)/(C−Tz)]×100 for concentrations for which Ti>/=Tz [(Ti−Tz)/Tz]×100 for concentrations for which Ti<Tz
(§4) Three dose response parameters are calculated for each experimental agent. […] The drug concentration resulting in total growth inhibition (TGI) is calculated from Ti=Tz. […] Values are calculated for each of these three parameters if the level of activity is reached; however, if the effect is not reached or is exceeded, the value for that parameter is expressed as greater or less than the maximum or minimum concentration tested.

NCI-H23 = test: NCI DTP screen (SRB), Non-Small Cell Lung Cancer; type: cell-based; conditions: Homo sapiens
Experimental: as §1, §2, §3, §4

HOP-62 = test: NCI DTP screen (SRB), Non-Small Cell Lung Cancer; type: cell-based; conditions: Homo sapiens
Experimental: as §1, §2, §3, §4

NCI-H322M = test: NCI DTP screen (SRB), Non-Small Cell Lung Cancer; type: cell-based; conditions: NCI-H322M
Experimental: as §1, §2, §3, §4

EKVX = test: NCI DTP screen (SRB), Non-Small Cell Lung Cancer; type: cell-based; conditions: Homo sapiens
Experimental: as §1, §2, §3, §4

NCI-H460 = test: NCI DTP screen (SRB), Non-Small Cell Lung Cancer; type: cell-based
Experimental: as §1, §2, §3, §4

NCI-H226 = test: NCI DTP screen (SRB), Non-Small Cell Lung Cancer; type: cell-based; conditions: Homo sapiens
Experimental: as §1, §2, §3, §4

SF-268 = test: NCI DTP screen (SRB), CNS Cancer; type: cell-based
Experimental: as §1, §2, §3, §4

SF-295 = test: NCI DTP screen (SRB), CNS Cancer; type: cell-based; conditions: Homo sapiens
Experimental: as §1, §2, §3, §4

SNB-19 = test: NCI DTP screen (SRB), CNS Cancer; type: cell-based; conditions: Homo sapiens
Experimental: as §1, §2, §3, §4

MALNE-3M = test: NCI DTP screen (SRB), Melanoma; type: cell-based
PC-3 cells = test: Cell viability analysis (MTT) in PC-3 cells; type: cell-based, human; conditions: Homo sapiens; inducing apoptotic death in PC-3 cells / PC-3 cell viability; read-out: IC50 PC-3
Experimental: Cell Culture PC-3 (p53−/−) human androgen-nonresponsive prostate cancer cells were purchased from the American […] (Manassas, Va.). Cells were cultured in RPMI 1640 medium (Gibco, Grand Island, N.Y.) supplemented with 10% fetal bovine serum (FBS; Gibco) at 37° C. in a humidified incubator containing 5% CO2.
Cell viability analysis The effect of 4-[5-(4-methylphenyl)-3-(trifluoromethyl)-1H-pyrazol-1-yl]benzenesulfonamide and its derivatives on PC-3 cell viability was assessed by using the MTT {[3-(4,5-dimethylthiazol-2-yl)-2,5-diphenyl-2H-tetrazolium bromide]} assay in six replicates. Cells were grown in 10% FBS-supplemented RPMI 1640 medium in 96-well, flat bottomed plates for 24 h, and were exposed to various concentrations of compounds 1-36 dissolved in DMSO (final concentration ≦0.1%) in 1% serum-containing RPMI 1640 medium for different time intervals. Controls received DMSO vehicle at a concentration equal to that in drug-treated cells. The medium was removed, replaced by 200 μl of 0.5 mg/ml of MTT in 10% FBS-containing RPMI-1640 medium, and cells were incubated in the CO2 incubator at 37° C. for 2 h. Supernatants were removed from the wells, and the reduced MTT dye was solubilized in 200 μL/well DMSO. Absorbance at 570 nm was determined on a plate reader.

UO-31 = test: NCI DTP screen (SRB), Renal Cancer; type: cell-based, human; conditions: Homo sapiens, UO-31
Experimental: as §1, §2, §3, §4

RXP 393 = test: NCI DTP screen (SRB), Renal Cancer; type: cell-based, human
Experimental: as §1, §2, §3, §4

[1] = MALNE-3M, Log10 Concentration −5.0

Structure (SMILES): NCC(=O)Nc1ccc(-n2nc(C(F)(F)F)cc2-c2ccc3c(ccc4ccccc43)c2)cc1 [Compound 70, 2-Amino-N-{4-[5-(2-phenanthrenyl)-3-(trifluoromethyl)-1H-pyrazol-1-yl]-phenyl}-acetamide]
- GI50 (A549/ATCC): 1020 nM
- GI50 (NCI-H23; NCI-H23): 1300 nM
- CC50 (NCI-H23; NCI-H23, read-out: LC50): 6330 nM
- GI50 (HOP-62; HOP-62): 1270 nM
- CC50 (HOP-62; HOP-62, read-out: LC50): 7130 nM
- CC50 (NCI-H322M; Homo sapiens, read-out: LC50): 5400 nM
- Mean Optical Densities (NCI-H322M; Log10 Concentration −5.0): 1.100
- Percent Growth (NCI-H322M; Log10 Concentration −8.0): 60%
- GI50 (EKVX): 1490 nM
- GI50 (NCI-H460; Homo sapiens, NCI-H460): 421 nM
- CC50 (NCI-H460; Homo sapiens, NCI-H460, read-out: LC50): > 100000 nM
- Percent Growth (NCI-H460; NCI-H460, Log10 Concentration −5.0): −66%
- Mean Optical Densities (NCI-H460; NCI-H460, Log10 Concentration −6.0): 1.830
- GI50 (NCI-H226): 1200 nM
- GI50 (SF-268; Homo sapiens, SF-268): 1110 nM
- CC50 (SF-268; Homo sapiens, SF-268, read-out: LC50): > 100000 nM
- Percent Growth (SF-268; SF-268, Log10 Concentration −4.0): −26%
- GI50 (SF-295; SF-295): 1280 nM
- CC50 (SF-295; SF-295, read-out: LC50): > 100000 nM
- GI50 (SNB-19): 1180 nM
- CC50 (MALNE-3M; Homo sapiens, read-out: LC50): 7730 nM
- Mean Optical Densities (MALNE-3M; [1]): 0.218
- Percent Growth (MALNE-3M; [1]): −67%
- Percent Growth (MALNE-3M; MALNE-3M, Log10 Concentration −6.0): 87%
- IC50 (PC-3 cells): 5000 nM
- GI50 (UO-31): 1370 nM
- GI50 (RXP 393; Homo sapiens): 1140 nM
- Percent Growth (RXP 393; Log10 Concentration −4.0): 10%
- Mean Optical Densities (RXP 393; Log10 Concentration −7.0): 0.700
- Mean Optical Densities (RXP 393; Log10 Concentration −8.0): 0.766
